Experiment [1] concerns the target T1, Progesterone receptor (Homo sapiens, UniProt P06401).
T1 sequence (P06401 whole entry): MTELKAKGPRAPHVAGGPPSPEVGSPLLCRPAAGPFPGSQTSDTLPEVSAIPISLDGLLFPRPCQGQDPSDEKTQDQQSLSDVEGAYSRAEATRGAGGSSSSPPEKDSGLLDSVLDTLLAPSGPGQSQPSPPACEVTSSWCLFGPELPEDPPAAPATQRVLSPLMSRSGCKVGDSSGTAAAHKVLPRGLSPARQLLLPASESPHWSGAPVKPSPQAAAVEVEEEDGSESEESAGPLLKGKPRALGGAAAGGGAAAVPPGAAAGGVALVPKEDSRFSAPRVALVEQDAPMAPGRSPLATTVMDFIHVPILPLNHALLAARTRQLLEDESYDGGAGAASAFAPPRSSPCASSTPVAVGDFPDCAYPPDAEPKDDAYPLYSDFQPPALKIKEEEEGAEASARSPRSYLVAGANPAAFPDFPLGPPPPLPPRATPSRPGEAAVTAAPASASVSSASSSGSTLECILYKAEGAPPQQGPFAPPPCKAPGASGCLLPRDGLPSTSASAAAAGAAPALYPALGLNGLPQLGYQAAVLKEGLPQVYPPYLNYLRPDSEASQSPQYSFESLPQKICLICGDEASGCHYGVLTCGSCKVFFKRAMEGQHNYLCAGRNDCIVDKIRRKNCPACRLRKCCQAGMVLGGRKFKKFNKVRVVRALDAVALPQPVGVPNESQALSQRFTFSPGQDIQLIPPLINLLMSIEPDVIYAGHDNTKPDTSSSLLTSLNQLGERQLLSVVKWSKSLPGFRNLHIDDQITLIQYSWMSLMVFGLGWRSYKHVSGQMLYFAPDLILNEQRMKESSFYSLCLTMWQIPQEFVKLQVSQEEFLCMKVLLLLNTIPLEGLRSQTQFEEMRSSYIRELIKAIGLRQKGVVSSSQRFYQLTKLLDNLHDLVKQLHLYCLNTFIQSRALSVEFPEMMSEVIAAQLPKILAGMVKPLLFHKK

Experiment [2] addresses T2, Androgen receptor (Homo sapiens, UniProt P10275).
T2 sequence (P10275 whole entry): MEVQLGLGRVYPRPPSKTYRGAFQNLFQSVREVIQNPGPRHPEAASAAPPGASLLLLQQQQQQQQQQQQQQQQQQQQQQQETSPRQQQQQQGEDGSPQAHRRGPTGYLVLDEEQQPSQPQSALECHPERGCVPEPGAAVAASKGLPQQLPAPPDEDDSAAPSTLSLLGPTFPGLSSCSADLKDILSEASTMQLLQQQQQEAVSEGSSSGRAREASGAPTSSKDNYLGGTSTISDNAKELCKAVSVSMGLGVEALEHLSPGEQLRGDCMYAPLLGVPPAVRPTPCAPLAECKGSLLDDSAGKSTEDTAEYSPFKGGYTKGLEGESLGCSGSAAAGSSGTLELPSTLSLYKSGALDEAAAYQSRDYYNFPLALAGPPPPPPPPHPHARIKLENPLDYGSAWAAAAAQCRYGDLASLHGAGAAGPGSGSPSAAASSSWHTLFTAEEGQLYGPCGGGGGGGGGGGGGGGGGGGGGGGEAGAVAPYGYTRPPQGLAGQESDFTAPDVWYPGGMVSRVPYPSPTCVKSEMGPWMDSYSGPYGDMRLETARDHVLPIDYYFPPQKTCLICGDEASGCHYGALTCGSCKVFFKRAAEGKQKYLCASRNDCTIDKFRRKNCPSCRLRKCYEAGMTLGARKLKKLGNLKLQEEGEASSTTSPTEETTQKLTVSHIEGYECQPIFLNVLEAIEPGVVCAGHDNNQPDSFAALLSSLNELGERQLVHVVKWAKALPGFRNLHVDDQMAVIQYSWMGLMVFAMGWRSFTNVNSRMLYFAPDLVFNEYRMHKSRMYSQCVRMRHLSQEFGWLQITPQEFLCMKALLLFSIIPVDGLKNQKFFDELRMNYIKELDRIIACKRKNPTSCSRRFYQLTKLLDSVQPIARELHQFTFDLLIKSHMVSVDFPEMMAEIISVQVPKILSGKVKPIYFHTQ
Description: Binding affinity determined against human Androgen receptor

In ChEMBL document CHEMBL1129561 (J Med Chem, 1996) one finds IC50 and Ki data, which are given here for 1 compound.

The term IC50 denotes the midpoint of a concentration-inhibition curve. Read a high IC50 as lower potency. By Ki is commonly meant the dissociation constant of the complex between target and ligand, obtained from inhibition or displacement. Higher therefore signals weaker binding.

`C=C1C=C(C)CC(C)(C)C1Cc1ccc([N+](=O)[O-])cc1` (configuration not stated) gave an IC50 in experiment [1] of 1.05 µM. In experiment [2], the Ki was 6.3 µM.
